Legend:
[1] = target: T1, MDR1 (Homo sapiens, UniProt P08183); assay: MDR1 membrane permeability test; assay type: in vitro ADME; settings: pH 7.4, human MDR1-expressing LLC-PK1 cells, 10 μmol/L test compound, read-out: Efflux ratio (ER)
T1 construct: expressed in transfected cells
Experimental: MDR1 Membrane Permeability Test
When MDR1 is expressed in excess in LLC-PK1 cell, which is a polar cell, MDR1 is localized in apical membrane (A), thus promoting transcellular transport from the basement membrane side (B) toward direction A. When a ratio to the transcellular transport in the opposite direction is taken and a ratio to a control cell in which a mock vector has been introduced is further taken, an efflux ratio of MDR1 to simple diffusion (corrected efflux ratio) is calculated. Similarly, when a brain/plasma concentration ratio in Mdr1(−/−) mouse is divided by a brain/plasma concentration ratio in wild-type mouse, an efflux ratio of Mdr1 to simple diffusion in blood-brain barrier (BBB) (Kp, brain ratio, higher value means lower central nervous system permeability) is calculated. Adachi Y. et al. (Reference 1) has reported a positive correlation between corrected efflux ratio and Kp, brain ratio (FIG. 5(C)), and efflux ratio in MDR1 expressing cell and Kp, brain ratio (FIG. 5(B)).
To confirm the central nervous system permeability of the compounds of the present invention, a MDR1 membrane permeability test was performed by the following method.
Digoxin and lucifer yellow (LY) were purchased from Sigma-Aldrich™, Diclofenac, colchicine and alprenolol were purchased from Wako Pure Chemical Industries, Ltd., and other reagents used were commercially available products of special grade.
Human MDR1-expressing LLC-PK1 cells were cultured according to the report of Takeuchi et al. (Reference 2). Human MDR1-expressing LLC-PK1 cells were cultured in 10% fetal bovine serum (Invitrogen™), 500 μg/ml G418 (Invitrogen™), 150 ng/ml colchicine-containing M199 medium (Invitrogen™) under 5% CO2 conditions at 37° C.
Transcellular transport was performed according to the report of Sugimoto et al. (Reference 3). The cells were cultured for 3 days on HTS Transwell™ (registered trademark) 96 well permeable support (pore size 0.4 μm, 0.143 cm^2 surface area, Corning Life Sciences) having polyethylene terephthalate membrane on which the cells had been seeded at 3.45×10^4 cells/well. After preincubation in M199 medium (containing 10 mmol/L HEPES, 1% BSA, pH 7.4) for 30 min, a drug solution (10 μmol/L digoxin, 200 μmol/L LY, 10 μmol/L test compound) dissolved in M199 medium was added to the apical side or basolateral side of the Transwell™ by 75 or 250 μL each and the cells were cultured under 5% CO2 conditions at 37° C. After 1 hr, the sample was collected from the side opposite to the side where the drug solution was added, and the concentration of the test compound was measured by LC-MS/MS. As an internal standard substance, 100 ng/mL alprenolol and diclofenac were used. The analysis conditions were as follows. • LC: UFLC LC-20 (Shimadzu™) • MS/MS: API4000 (AB Sciex™ Instruments) • LC condition: gradient method
• Column: Unison UK-C18 HT (3.0 μm, 2.0×20 mm) • Column temperature: 50° C. • Flow rate: 0.7 mL/min (for 1.5 min run), 1.0 mL/min (for 1.0 min run) • Mobile phase A: 50 mM CH3COONH4:MeCN:water=1:1:8 • Mobile phase B: 50 mM CH3COONH4:MeCN=1:9 • Injection volume: 1-20 μL
LY was measured by a fluorescence plate reader (Fluoroskan Ascent FL).
Papp, A to B and Papp, B to A (apparent permeability) were calculated from the formula (1), and the efflux ratio (ER) was calculated from the formula (2).
[formula] • Amount: amount of transported digoxin/well • Area: surface area of cell monolayer (0.143 cm^2) • C0: concentration of drug solution added • Time: incubation time

[2] = target: T2, human M1 receptor (Homo sapiens, UniProt P11229); assay: Measurement of M1 receptor positive allosteric modulator (M1PAM) activity; assay type: cell-based; settings: PAM activity in presence of acetylcholine at EC20 concentration; CHO-K1 cells stably expressing human M1 receptor; IP1 time-resolved fluorescence
T2 construct: expressed in transfected cells; host or cells: CHO-K1
T2 sequence (P11229 1-460): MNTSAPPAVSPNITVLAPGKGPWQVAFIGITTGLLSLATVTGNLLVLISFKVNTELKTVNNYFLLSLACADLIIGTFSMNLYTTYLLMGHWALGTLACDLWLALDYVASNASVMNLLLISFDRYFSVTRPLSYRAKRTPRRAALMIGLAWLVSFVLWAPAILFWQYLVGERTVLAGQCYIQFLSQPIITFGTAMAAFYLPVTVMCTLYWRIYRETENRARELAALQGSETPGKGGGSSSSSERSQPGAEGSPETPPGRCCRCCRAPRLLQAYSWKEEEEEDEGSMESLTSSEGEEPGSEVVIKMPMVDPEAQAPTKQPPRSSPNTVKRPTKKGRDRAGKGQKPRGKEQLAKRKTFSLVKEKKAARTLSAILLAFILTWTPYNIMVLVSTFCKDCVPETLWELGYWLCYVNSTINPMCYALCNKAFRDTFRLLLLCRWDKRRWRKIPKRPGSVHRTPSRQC
Experimental: Measurement of M1 Receptor Positive Allosteric Modulator (M1PAM) Activity
The activity of a test compound in the presence of acetylcholine at an EC20 concentration affording about 20% action of the maximum activity was measured as PAM activity. The method therefor is as follows. To a 384-well white plate (Greiner™) was added 4 μL of the test compound diluted with IP1 Stimulation buffer (CisBio™) containing 0.1% fatty acid-free BSA containing 80 nM acetylcholine. Freeze stock of CHO-K1 cells stably expressing human M1 receptor (hCHRMl) was prepared with IP1 Stimulation buffer (CisBio™) containing 0.1% fatty acid-free BSA, 4 μL thereof was added (10,000 cells/well) and the mixture was cultured in a 5% CO2 incubator at 37° C. for 1 hr. 4 μL of a solution (CisBio™) containing IP1-d2 and Anti-IP1-cryptate Tb conjugate was added the mixture was incubated at room temperature for 1 hr, and the time-resolved fluorescence signal was measured on an Envision plate reader (Perkin Elmer™). The activity (%) of the test compound was calculated by defining the value when acetylcholine was added at the final concentration of 20 μM as 100% and the value when DMSO was added instead of the test compound under acetylcholine-free conditions as 0%, and the EC50 value was calculated as a value of 50% of the concentration dependence curve of the test compound.

T1 sequence (P08183 whole entry): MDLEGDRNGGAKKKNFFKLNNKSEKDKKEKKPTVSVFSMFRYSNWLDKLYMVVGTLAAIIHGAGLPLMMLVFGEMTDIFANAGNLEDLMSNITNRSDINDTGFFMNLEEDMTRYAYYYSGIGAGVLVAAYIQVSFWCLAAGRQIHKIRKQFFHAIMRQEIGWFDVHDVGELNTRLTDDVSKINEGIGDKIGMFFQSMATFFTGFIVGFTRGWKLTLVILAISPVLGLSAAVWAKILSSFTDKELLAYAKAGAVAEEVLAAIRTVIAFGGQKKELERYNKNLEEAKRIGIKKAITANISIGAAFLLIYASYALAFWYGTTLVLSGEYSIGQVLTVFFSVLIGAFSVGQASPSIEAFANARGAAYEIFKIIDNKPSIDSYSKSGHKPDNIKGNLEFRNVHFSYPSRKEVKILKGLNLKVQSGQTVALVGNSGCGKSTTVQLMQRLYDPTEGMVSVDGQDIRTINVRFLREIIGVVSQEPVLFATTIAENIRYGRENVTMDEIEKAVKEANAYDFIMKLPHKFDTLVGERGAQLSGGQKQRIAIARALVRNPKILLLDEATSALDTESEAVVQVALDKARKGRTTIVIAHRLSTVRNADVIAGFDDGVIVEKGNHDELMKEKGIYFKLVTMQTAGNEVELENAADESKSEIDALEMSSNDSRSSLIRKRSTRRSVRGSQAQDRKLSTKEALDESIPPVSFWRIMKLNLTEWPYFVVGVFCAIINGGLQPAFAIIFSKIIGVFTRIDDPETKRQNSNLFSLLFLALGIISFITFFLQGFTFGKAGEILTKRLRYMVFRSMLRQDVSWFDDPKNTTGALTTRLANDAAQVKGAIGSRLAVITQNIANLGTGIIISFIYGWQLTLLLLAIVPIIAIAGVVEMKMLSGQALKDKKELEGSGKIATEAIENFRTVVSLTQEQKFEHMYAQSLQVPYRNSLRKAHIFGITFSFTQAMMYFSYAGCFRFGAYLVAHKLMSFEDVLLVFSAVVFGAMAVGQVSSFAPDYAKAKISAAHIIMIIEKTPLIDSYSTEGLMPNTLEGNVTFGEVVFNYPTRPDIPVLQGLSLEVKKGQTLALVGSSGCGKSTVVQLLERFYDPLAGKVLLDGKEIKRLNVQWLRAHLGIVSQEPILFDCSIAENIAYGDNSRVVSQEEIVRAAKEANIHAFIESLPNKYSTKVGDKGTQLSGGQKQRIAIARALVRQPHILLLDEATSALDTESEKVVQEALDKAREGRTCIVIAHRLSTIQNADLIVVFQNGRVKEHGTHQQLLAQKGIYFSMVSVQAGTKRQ

With `CNC(=O)c1ccc(Cc2cc(C(=O)N[C@H]3CCOC[C@@H]3O)c(OC)c3c2OCC3)cc1F` [Example 31, 1,5-anhydro-2,3-dideoxy-3-(((7-(3-fluoro-4-(methylcarbamoyl)benzyl)-4-methoxy-2,3-dihydro-1-benzofuran-5-yl)carbonyl)amino)-L-threo-pentitol] as the compound, how does the efflux ratio at 1 h, 10 μmol/L [1] read?
The efflux ratio at 1 h, 10 μmol/L was 28.

And the EC50 [2]?
Its EC50 is 18 nM.

Which efflux ratio at 1 h, 10 μmol/L [1] does the source give for `Cn1cnc(-c2ccc(Cc3cc(C(=O)N[C@H]4CCOC[C@@H]4O)c(F)c4c3OCC4)cc2)c1` [Example 5, 1,5-anhydro-2,3-dideoxy-3-(((4-fluoro-7-(4-(1-methyl-1H-imidazol-4-yl)benzyl)-2,3-dihydro-1-benzofuran-5-yl)carbonyl)amino)-L-threo-pentitol] here?
Its efflux ratio at 1 h, 10 μmol/L is 7.3.

And the EC50 [2]?
The EC50 was 3.7 nM.

For `Cn1cc(-c2ccc(Cc3cc(C(=O)N[C@H]4CCOC[C@@H]4O)c(F)c4c3OCC4)cn2)cn1` [Example 6, 1,5-anhydro-2,3-dideoxy-3-(((4-fluoro-7-((6-(1-methyl-1H-pyrazol-4-yl)pyridin-3-yl)methyl)-2,3-dihydro-1-benzofuran-5-yl)carbonyl)amino)-L-threo-pentitol], which efflux ratio at 1 h, 10 μmol/L [1] is on record?
The efflux ratio at 1 h, 10 μmol/L was 18.

And the EC50 [2]?
Its EC50 is 2 nM.

Which results are given for `COCCCNC(=O)c1ccc(Cc2cc(C(=O)N[C@H]3CCOC[C@@H]3O)c(OC)c3c2CCC3)cc1F` [Example 60, 1,5-anhydro-2,3-dideoxy-3-(((7-(3-fluoro-4-((3-methoxypropyl)carbamoyl)benzyl)-4-methoxy-2,3-dihydro-1H-inden-5-yl)carbonyl)amino)-L-threo-pentitol]?
efflux ratio at 1 h, 10 μmol/L [1]: 15; EC50 [2]: 17 nM

With `CCOCCNC(=O)c1ccc(Cc2cc(C(=O)N[C@H]3CCOC[C@@H]3O)c(F)c3c2OCC3)cc1F` [Example 14, 1,5-anhydro-2,3-dideoxy-3-(((7-(4-((2-ethoxyethyl)carbamoyl)-3-fluorobenzyl)-4-fluoro-2,3-dihydro-1-benzofuran-5-yl)carbonyl)amino)-L-threo-pentitol] as the compound, how does the efflux ratio at 1 h, 10 μmol/L [1] read?
Its efflux ratio at 1 h, 10 μmol/L is 9.3.

What about the EC50 [2] of the same compound?
The EC50 was 20 nM.

For `COCCNC(=O)c1ccc(Cc2cc(C(=O)N[C@H]3CCOC[C@@H]3O)c(F)c3c2OCC3)cc1F` [Example 13, 1,5-anhydro-2,3-dideoxy-3-(((4-fluoro-7-(3-fluoro-4-((2-methoxyethyl)carbamoyl)benzyl)-2,3-dihydro-1-benzofuran-5-yl)carbonyl)amino)-L-threo-pentitol], which efflux ratio at 1 h, 10 μmol/L [1] is on record?
Its efflux ratio at 1 h, 10 μmol/L is 10.

And the EC50 [2]?
The EC50 was 4.2 nM.

Reference: patent US12162864B2, “Condensed-cyclic compound” (Takeda Pharmaceutical Company Limited, priority 2018, dated 2024)
